Reference: patent EP2236138A1 (priority 2009, dated 2010)

Legend:
Alpha2A = biological target: T1, Alpha2A (Homo sapiens, UniProt P08913); experiment: pKi values of test compounds, Alpha2A (Table 1); type: binding
T1 sequence (P08913 1-465): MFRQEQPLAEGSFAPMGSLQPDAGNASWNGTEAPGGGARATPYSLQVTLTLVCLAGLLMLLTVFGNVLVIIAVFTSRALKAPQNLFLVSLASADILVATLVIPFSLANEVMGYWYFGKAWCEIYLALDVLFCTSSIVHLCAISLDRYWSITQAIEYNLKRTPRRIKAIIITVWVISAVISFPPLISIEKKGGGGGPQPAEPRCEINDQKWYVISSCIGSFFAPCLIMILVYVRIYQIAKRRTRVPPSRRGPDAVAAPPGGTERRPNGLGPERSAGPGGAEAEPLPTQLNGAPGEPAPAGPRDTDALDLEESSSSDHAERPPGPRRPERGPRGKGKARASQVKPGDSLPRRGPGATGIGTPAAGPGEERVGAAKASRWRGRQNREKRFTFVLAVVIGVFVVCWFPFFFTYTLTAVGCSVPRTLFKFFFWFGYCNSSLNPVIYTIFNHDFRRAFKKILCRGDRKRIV

5HT1B = 5HT1B (Homo sapiens, UniProt P28222); experiment: biochemical; type: binding
Sequence of 5HT1B (P28222 whole entry): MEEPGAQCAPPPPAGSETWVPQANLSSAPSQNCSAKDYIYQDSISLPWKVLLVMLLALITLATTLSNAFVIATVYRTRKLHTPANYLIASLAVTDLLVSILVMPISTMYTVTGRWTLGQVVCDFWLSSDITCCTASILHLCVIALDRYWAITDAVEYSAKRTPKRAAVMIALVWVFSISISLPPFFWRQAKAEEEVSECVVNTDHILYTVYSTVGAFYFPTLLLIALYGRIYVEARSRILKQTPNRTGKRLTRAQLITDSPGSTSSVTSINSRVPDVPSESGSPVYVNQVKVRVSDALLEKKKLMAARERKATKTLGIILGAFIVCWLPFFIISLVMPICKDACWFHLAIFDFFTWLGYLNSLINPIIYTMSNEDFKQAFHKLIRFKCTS

5HT2B = 5HT2B (Homo sapiens, UniProt P41595); experiment: pKi values of test compounds, 5HT2B (Table 1); type: binding
Sequence of 5HT2B (P41595 whole entry): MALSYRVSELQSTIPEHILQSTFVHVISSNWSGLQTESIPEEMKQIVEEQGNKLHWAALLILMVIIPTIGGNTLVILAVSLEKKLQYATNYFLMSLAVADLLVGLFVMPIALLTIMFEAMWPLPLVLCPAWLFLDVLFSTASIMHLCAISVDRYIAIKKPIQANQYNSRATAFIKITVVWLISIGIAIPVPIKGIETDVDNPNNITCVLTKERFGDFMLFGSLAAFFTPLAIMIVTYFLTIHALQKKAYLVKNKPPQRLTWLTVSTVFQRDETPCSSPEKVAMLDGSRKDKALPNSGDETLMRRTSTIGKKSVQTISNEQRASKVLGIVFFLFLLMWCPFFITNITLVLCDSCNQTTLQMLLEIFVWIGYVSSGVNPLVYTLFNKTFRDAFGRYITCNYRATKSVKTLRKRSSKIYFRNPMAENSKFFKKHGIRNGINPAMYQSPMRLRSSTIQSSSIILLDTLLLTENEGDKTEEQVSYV

D3 = D3 (Homo sapiens, UniProt P35462); experiment: biochemical; type: binding
Sequence of D3 (P35462 whole entry): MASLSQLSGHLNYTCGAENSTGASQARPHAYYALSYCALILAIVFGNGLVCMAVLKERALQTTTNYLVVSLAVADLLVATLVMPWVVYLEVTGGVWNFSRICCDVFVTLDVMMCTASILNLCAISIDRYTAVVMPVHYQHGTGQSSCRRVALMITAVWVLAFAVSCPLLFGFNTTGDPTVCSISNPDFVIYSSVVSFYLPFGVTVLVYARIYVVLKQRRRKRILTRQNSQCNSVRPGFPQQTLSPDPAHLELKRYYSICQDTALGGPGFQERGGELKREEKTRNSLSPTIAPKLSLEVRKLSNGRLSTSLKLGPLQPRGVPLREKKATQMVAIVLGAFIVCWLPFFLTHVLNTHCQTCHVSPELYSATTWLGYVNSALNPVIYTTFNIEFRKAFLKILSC

5HT1D = 5HT1D (Homo sapiens, UniProt P28221); experiment: biochemical; type: binding
Sequence of 5HT1D (P28221 whole entry): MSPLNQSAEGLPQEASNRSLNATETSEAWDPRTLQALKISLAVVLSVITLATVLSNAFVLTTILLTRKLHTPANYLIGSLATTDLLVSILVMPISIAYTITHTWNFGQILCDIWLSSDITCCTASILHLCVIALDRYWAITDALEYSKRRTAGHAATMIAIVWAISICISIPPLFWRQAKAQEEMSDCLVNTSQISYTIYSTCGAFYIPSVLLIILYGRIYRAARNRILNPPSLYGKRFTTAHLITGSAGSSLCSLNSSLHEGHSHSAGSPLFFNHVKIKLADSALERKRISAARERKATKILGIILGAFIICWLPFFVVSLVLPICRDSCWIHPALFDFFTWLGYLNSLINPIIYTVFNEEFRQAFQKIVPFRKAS

other 5HT receptors = experiment: pKi value towards other 5HT receptors; type: binding
other dopamine receptors = experiment: pKi value towards other dopamine receptors; type: binding
[1] = tested on: patients with major depression; experiment: Semi-naturalistic open label study of combo pipamperone-citalopram in major depression; type: in vivo
From the text: Design: Semi-naturalistic i.e. inclusion of every 'natural' patient in an outpatient practice but without concomitant use of mood enhancing drugs, open label
Phase: Phase Ila - preliminary Proof of Concept
Location: Belgium - Research Centre ANIMA, Alken
End Points : Assessment scale scores, Hamilton Depression Rating Scale 17 items, Reduction, Response, Remission
Medication: Exclusion of mood stabilisers, antipsychotics (typical and atypical) and other antidepressants […]
Adverse events are assessed on: body as a whole, central and peripheral nervous system, gastrointestinal, musculoskeletal, psychiatric, respiratory, skin and appendages, vascular and urinary, taking into account discontinued treatment due to adverse events. Laboratory parameters, ECG, bodyweight and vital signs are not measured since this is a naturalistic study.

Beta2 = Beta2 (Homo sapiens, UniProt P07550); experiment: pKi values of test compounds, Beta2 (Table 1); type: binding
Sequence of Beta2 (P07550 whole entry): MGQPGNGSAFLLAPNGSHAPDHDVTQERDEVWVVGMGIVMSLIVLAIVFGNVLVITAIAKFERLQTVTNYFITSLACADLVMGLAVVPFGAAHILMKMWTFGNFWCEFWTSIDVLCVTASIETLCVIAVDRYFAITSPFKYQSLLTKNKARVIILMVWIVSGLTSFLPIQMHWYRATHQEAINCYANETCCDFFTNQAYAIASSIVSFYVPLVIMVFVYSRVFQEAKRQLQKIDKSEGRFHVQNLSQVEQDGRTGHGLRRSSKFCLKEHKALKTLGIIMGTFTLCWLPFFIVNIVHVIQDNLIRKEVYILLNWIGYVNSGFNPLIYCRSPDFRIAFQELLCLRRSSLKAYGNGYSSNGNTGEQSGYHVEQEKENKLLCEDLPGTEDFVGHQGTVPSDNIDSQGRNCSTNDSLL

Beta1 = Beta1 (Homo sapiens, UniProt P08588); experiment: pKi values of test compounds, Beta1 (Table 1); type: binding
Sequence of Beta1 (P08588 whole entry): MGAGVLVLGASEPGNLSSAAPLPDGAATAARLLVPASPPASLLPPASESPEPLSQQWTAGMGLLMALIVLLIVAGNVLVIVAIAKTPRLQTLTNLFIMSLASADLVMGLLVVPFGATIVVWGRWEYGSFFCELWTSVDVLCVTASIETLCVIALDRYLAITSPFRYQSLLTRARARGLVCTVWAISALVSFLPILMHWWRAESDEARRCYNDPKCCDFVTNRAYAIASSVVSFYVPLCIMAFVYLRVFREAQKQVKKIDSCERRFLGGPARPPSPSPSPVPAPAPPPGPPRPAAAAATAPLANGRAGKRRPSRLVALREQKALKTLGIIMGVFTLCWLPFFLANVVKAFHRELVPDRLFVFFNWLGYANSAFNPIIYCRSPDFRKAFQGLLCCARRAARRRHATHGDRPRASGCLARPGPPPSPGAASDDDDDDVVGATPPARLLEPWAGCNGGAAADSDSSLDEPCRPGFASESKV

5HT6rat = 5HT6rat (Rattus norvegicus, UniProt P31388); experiment: pKi values of test compounds, 5HT6 rat (Table 1); type: binding
Sequence of 5HT6rat (P31388 whole entry): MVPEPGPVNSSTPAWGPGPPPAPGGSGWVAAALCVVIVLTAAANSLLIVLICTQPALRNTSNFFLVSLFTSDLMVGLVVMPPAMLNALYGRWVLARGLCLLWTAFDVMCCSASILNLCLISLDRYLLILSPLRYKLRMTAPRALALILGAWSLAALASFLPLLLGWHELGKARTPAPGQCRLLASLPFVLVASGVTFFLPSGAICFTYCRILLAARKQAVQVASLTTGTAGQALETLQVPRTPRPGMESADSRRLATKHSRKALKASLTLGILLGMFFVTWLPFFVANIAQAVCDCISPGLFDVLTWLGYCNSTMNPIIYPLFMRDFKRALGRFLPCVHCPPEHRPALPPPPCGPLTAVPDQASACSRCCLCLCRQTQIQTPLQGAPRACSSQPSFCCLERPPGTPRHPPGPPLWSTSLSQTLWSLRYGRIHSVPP

5HT2C = biological target: T2, 5HT2C (Homo sapiens, UniProt P28335); type: binding
T2 sequence (P28335 33-458): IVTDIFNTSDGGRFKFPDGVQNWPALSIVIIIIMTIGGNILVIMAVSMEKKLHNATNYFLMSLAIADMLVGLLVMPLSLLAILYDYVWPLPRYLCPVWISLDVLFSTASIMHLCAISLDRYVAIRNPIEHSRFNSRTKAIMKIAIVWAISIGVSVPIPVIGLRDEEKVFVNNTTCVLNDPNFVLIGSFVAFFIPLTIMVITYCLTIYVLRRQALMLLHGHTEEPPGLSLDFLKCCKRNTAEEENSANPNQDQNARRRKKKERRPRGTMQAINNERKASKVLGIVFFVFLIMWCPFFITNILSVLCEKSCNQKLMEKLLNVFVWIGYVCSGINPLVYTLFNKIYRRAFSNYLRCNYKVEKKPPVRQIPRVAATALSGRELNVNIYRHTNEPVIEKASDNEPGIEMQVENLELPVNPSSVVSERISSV

D2 = D2 (Homo sapiens, UniProt P14416); type: binding
Sequence of D2 (P14416 whole entry): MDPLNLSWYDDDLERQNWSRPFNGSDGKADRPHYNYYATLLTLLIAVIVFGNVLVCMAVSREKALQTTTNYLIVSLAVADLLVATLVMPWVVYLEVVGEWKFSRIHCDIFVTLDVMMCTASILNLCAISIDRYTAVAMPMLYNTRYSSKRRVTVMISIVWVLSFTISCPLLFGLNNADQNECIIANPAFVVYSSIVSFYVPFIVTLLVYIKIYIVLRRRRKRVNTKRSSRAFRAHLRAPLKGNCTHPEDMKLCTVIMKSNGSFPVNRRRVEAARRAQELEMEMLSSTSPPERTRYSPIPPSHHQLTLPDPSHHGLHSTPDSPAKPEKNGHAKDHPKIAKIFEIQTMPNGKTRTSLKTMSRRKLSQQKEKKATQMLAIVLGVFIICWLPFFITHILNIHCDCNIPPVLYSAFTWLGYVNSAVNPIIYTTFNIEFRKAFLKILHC

5HT1A = biological target: T3, 5HT1A (Homo sapiens, UniProt P08908); type: binding
T3 sequence (P08908 1-422): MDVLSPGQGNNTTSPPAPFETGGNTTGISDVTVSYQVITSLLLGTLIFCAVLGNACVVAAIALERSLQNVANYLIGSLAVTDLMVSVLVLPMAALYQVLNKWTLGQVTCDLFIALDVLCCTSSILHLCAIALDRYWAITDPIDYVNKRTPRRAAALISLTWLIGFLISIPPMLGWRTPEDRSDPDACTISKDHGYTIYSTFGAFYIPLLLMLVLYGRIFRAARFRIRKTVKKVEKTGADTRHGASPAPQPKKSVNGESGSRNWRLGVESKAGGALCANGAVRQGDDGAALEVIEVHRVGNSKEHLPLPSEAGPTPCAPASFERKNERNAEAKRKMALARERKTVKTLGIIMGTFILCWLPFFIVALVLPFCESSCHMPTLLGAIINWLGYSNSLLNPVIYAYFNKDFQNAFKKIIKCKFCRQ

D1 = D1 (Homo sapiens, UniProt P21728); type: binding
Sequence of D1 (P21728 whole entry): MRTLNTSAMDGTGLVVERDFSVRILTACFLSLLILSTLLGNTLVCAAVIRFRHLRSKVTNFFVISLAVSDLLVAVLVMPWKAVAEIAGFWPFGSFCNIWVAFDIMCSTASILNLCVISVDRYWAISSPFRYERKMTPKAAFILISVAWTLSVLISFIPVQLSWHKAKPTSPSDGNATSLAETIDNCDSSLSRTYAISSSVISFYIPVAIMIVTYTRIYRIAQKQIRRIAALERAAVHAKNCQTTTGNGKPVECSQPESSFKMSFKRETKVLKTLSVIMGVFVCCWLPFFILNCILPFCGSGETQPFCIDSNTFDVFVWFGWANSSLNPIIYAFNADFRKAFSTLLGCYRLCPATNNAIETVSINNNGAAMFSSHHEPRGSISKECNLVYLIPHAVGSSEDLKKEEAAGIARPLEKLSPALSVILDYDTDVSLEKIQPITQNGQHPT

Alpha1A = biological target: T4, Alpha1A (Homo sapiens, UniProt P35348); type: binding
T4 sequence (P35348 1-466): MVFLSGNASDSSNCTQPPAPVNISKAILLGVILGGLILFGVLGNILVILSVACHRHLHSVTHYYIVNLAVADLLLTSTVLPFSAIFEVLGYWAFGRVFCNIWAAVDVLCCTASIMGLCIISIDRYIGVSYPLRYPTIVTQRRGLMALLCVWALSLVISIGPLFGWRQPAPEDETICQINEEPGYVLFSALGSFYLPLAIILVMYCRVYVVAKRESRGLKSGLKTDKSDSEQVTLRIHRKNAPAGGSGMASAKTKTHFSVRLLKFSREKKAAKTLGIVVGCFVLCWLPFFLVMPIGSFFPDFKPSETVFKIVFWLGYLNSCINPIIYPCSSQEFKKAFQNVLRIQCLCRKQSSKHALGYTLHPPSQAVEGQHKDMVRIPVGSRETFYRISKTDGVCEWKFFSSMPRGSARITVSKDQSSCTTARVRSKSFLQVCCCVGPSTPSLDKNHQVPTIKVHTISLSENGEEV

## OC1(c2ccc(Cl)cc2)CCN(Cc2c[nH]c3ccccc23)CC1 [L741626]
Alpha2A
  Ki: > 1 µM
5HT1B; read-out: pKi 5HT1B (converted)
  Ki: > 1 µM
5HT2B
  Ki: 0.1 to 1 µM
D3
  Ki: 0.01 to 0.1 µM
5HT1D
  Ki: > 1 µM

## NC(=O)C1(N2CCCCC2)CCN(CCCC(=O)c2ccc(F)cc2)CC1 [Pipamperon, 1'-[3-(p-Fluorobenzoyl)propyl]-[1,4'-bipiperidine]-4'-carboxamide]
Other 5HT receptors
  pKi value towards other 5HT receptors: less than 8
Other dopamine receptors
  pKi value towards other dopamine receptors: less than 8
[1]; major depression study, pipamperone 2-4 mg/day
  Sedative effects of pipamperone: lacking
[1]; major depression, pipamperone 2-4 mg/day + citalopram 20-40 mg/day PO, 8 weeks
  boosting effect of pipamperone on a SSRI, in this case citalopram: apparent

## O=C(C[C@H]1CCN(CCOc2cccc3c2OCCO3)C1)c1ccc(F)cc1 [S16924]
Beta2
  pKi Beta2: <6
Beta1
  pKi Beta1: <6
5HT6rat
  pKi 5HT6rat: 6-7
D3
  pKi D3: 7-8
5HT2C
  pKi 5HT2C: <6
D2
  pKi D2: 7-8

## N#Cc1ccc2c(c1)[C@H]1CN(CCCCNC(=O)c3ccc(-c4ccccc4)cc3)C[C@@H]1CO2 [S33084]
5HT1A
  pKi 5HT1A: <6
Alpha2A
  pKi Alpha2A: <6
5HT1B
  pKi 5HT1B: 6-7
5HT2B
  pKi 5HT2B: 6-7
D1
  pKi D1: 6-7
5HT2C
  pKi 5HT2C: 7-8
D2
  pKi D2: 7-8
Alpha1A
  pKi Alpha1A: 6-7
5HT1D
  pKi 5HT1D: 6-7
